Experimental findings from US9127016B2, “Small molecule inhibitors of Dusp6 and uses therefor” (University of Pittsburgh—Of the Commonwealth System of …, priority 2009, dated 2015) are described below.

The test system of assay [1] is FGF signaling (d2EGFP reporter). Description: BCI analog SAR: d2EGFP intensity in transgenic zebrafish embryos by densitometry. Particulars: 20 μM, 24 hpf embryos, 6 h; for Activity (BCI = 100): d2EGFP intensity in the dorsal region. The assay is classed as in vivo. As to the method:
Transgenic zebrafish embryos (24 hpf) were treated with 20 μM solution of BCI analogs in 0.5% aq DMSO and fluorescence photomicrographs were taken after 6 h. The effectiveness of BCI analogs was evaluated by densitometry (ImageJ) of d2EGFP intensity in the dorsal region.

Another assay addresses T1, Dusp6 (Homo sapiens, UniProt Q16828).
T1 sequence (Q16828 1-381): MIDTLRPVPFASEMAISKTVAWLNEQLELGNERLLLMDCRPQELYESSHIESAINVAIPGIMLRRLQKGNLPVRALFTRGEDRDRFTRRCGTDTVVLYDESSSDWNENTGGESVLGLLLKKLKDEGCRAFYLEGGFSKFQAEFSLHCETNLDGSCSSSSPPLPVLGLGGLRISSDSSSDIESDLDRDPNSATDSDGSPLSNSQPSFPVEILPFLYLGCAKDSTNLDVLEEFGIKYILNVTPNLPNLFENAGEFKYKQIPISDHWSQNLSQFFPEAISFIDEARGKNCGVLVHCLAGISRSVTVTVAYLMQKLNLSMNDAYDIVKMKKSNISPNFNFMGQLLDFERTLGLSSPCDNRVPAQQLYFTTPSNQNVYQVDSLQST
Put plainly: Basal Dusp6 dephosphorylation of OMFP. The class given is biochemical. The arrangement: His; made in house. The method, then:
For OMFP based ERK2 induced activation of Dusp6, recombinant His-tagged Dusp6 was expressed from a bacterial expression vector and 250 ng were incubated with the indicated concentrations of NSC95397 or BCI. OMFP was added at its apparent Km (100 μM) (Vogt, A. et al. J Biol Chem 280, 19078-86 (2005)). The final reaction volume was 15 μl. After 1 h at RT, OMF fluorescence was measured on an M5 multimode reader (Molecular Devices) at excitation/emission wavelengths of 485/525 nm. To assay activated Dusp6, 210 ng or 2.1 μg of recombinant ERK2 (Cell signaling) were added to Dusp6(210 ng)/BCI(100 μM) mixtures to measure activation at 1:1 and 1:10 ratio of substrate to enzyme. OMFP was immediately added and fluorescence (ex485/em525 nm) was read every 10 min for 130 min. Fold activation was calculated at 60 mins in each experiment.

The target of another assay is T2, PTP1B (Homo sapiens, UniProt P18031).
T2 sequence (P18031 1-435): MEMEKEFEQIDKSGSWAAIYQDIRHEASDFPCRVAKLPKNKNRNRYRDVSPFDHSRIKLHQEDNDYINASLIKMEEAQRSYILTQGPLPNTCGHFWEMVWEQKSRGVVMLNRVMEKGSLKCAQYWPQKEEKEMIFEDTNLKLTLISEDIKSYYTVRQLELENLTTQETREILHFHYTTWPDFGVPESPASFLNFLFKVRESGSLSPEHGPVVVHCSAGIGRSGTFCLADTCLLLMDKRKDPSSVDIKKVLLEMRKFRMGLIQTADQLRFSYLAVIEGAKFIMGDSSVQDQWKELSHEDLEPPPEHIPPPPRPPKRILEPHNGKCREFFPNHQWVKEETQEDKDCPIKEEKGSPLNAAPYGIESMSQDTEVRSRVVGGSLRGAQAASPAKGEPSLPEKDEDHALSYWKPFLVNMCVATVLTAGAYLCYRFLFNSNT
Put plainly: OMFP phosphatase assay, PTP1B. The assay is classed as biochemical. To be noted: 100 μM, positive control. The method, then:
(§1) Enzyme activities in the presence or absence of BCI were measured using the artificial substrate […] at concentrations equal to the Km of each enzyme (Cdc25B, PTP1B & Dusp3/VHR) and at optimal pH for individual enzyme activity in a 96-well microtiter plate assay based on previously described methods by Lazo et al. (J Med Chem 44, 4042-9 (2001) and Lazo, J. S. et al. Bioorg Med Chem 14, 5643-50 (2006)). Briefly, the standard assay conditions contained 0.02 mg/ml OMFP in assay buffer (30 mM Tris-HCl (pH8.0), 75 mM NaCl, 1 mM EDTA, 0.33% BSA and 1 mM DTT). Fluorescence emission was measured after a sixty-minute incubation period at ambient temperature using a multiwell plate reader (SpectraMax m5, […]; excitation 485 nm, emission 525 nm). Sodium orthovanadate (100 μM) was used as a positive control for full phosphatase inhibition. IC50 concentrations were determined from three experiments using 10 concentrations of BCI ranging from 300 μM to 15.2 nM and GraphPad Prism 5.0 software.

The target in the next assay is T3, Cdc25B (Homo sapiens, UniProt P30305).
T3 sequence (P30305 1-580): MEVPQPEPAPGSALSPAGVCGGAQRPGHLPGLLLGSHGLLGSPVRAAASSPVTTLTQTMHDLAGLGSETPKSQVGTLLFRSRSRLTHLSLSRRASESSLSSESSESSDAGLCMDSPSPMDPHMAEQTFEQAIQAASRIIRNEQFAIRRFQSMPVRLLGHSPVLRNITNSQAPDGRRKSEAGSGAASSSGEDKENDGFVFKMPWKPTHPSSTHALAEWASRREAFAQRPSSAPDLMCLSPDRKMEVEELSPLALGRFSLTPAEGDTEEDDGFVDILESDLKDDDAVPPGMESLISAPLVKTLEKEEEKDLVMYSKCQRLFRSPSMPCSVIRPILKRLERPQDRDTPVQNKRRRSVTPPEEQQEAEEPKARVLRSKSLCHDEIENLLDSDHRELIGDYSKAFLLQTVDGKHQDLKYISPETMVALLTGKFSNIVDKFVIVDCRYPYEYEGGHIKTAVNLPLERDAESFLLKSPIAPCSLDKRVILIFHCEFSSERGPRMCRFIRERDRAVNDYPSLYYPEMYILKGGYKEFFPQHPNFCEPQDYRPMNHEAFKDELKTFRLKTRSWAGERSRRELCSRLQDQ
Description: OMFP phosphatase assay, Cdc25B. The assay is classed as biochemical. Particulars: 100 μM, positive control. As to the method: as §1

The next assay concerns the target Dusp3/VHR (Homo sapiens, UniProt P51452). Put plainly: OMFP phosphatase assay, Dusp3/VHR. Particulars: 100 μM, positive control. The class given is biochemical. As to the method: as §1
Assay [2] has as its system FGF signaling (Tg(Dusp6:d2EGFP)pt6 reporter). Description: Transgenic zebrafish chemical screen, d2EGFP fluorescence. The assay is classed as in vivo. Particulars: 24 hpf embryos, 6-8 hours; analogs even at four-fold higher concentrations. As to the method: Tg(dusp6:d2EGFP)pt6 embryos were obtained by natural crossings and incubated at 28.5° C. until they reached 24 hpf. Five transgenic embryos were placed into each well from a 96-well plate in 200 μl of E3, and a 0.5% DMSO solution was added along with compound from each library at 10 μM. The NCI diversity set (NCl/NIH), the Natural Products library (MicroSource Discovery Systems Inc.) and Phosphatase targeted set (Chembridge) were screened in this study. (E)-2-Benzylidene-3-(cyclohexylamino)-2,3-dihydro-1H-inden-1-one (BCI; also known as NSC150117) was identified as a compound that enhanced fluorescence in treated transgenic embryos. Treated embryos were photographed under the same settings for exposure, gain and magnification for each picture using a MZFLIII (Leica) microscrope and fluorescent illumination for GFP using endow cube (Chroma Technology Corp., Rockingham, Vt.). Qimaging software and the Retiga Exi camera (Qimaging, Burnaby, BC Canada) were used to capture the images.
We previously described the generation of a transgenic zebrafish line, (Tg(Dusp6:d2EGFP)pt6) that expresses destabilized green fluorescent protein (d2EGFP) under the control of FGF signaling (Molina, G. A., et al. BMC Dev Biol 7, 62 (2007)). Using Tg(Dusp6:d2EGFP) embryos as a biosensor for FGF signaling, we screened over 5000 diverse compounds assembled from chemical libraries for small molecule modulators of this pathway. Five transgenic embryos at 24 hours post fertilization (hpf) were arrayed into each well of a 96-well plate containing test compounds at 10 μM. d2EGFP intensity in treated embryos was visually analyzed and compared to vehicle control (0.5% DMSO) after 6-8 hours. […] To confirm that BCI hyperactivated FGF signaling, we treated embryos prior to gastrulation (5 hpf), and we analyzed by whole mount in situ hybridization, the expression of ntl (zebrafish brachyury), a known FGF target gene (Latinkic, B. V. et al. Genes Dev 11, 3265-76 (1997)). […] We next determined the BCI structural features required to enhance FGF signaling. Two analogs, (E)-2-benzylidene-2,3-dihydro-1H-inden-1-one (BI) lacking the cyclohexylamino group, and 3-(cyclohexylamino)-2,3-dihydro-1H-inden-1-one (ICD) lacking the benzylidene group were synthesized).

Dusp3/VHR, sequence (P51452 whole entry): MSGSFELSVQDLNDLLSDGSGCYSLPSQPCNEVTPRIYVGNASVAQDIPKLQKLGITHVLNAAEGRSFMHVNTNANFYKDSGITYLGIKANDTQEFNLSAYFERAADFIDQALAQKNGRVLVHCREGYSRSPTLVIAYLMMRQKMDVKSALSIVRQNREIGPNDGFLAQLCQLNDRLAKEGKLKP

With `O=C1/C(=C/c2ccc(Cl)cc2)C(NC2CCCCC2)c2ccccc21` (stereo not shown) [Compound 14], in assay [1], the “activity as compared to BCI” value is reported as 52% and the “Activity (BCI = 100)” value came to 52.
Regarding `O=C1C(SCCO)=C(SCCO)C(=O)c2ccccc21` [NSC95397, 2,3-bis(2-hydroxyethylthio)naphthalene-1,4-dione, reference compound], the “effect on basal Dusp6 activity toward OMFP” value on Dusp6 is on record as “blocked basal Dusp6 activity toward OMFP”.
In the case of `O=C1N[C@H]2[C@H](CS[C@H]2CCCCC(=O)N[C@H]2CC[C@H](NC3/C(=C\c4ccccc4)C(=O)c4ccccc43)CC2)N1` (stereo partly shown) [Compound 19], in assay [1], the “in vivo activity relative to BCI, in words” value is reported as “no effect on FGF signaling” and the “Activity (BCI = 100)” value was “No activity,”.
`O=C1/C(=C/c2ccccc2)C(NC2CCCC2)c2ccccc21` (stereo not shown) [Compound 4]: in assay [1], the “Activity (BCI = 100)” value turned out to be 123.
Take `[Na+].[Na+].[Na+].[O]=[V]([O-])([O-])[O-]` [Sodium orthovanadate, reference compound]: on PTP1B, the “inhibition of PTP1B” value is reported as 100%. Besides, on Cdc25B, the “inhibition of Cdc25B” value was determined as 100%. Further, the “inhibition of Dusp3/VHR” value against Dusp3/VHR is given as 100%.
With `CC(=O)N1CCN(C2/C(=C\c3ccccc3)C(=O)c3ccccc32)CC1` (stereo not shown) [Compound 13], the “Activity (BCI = 100)” value in assay [1] worked out at 47.
Turning to `O=C1/C(=C/c2ccccc2)C(N2CCCCC2)c2ccccc21` (stereo not shown) [Compound 7], in assay [1], the “Activity (BCI = 100)” value was determined as 114.
Consider `O=C1/C(=C/c2ccccc2)C(NC2CCCCC2)c2ccccc21` (single isomer, unassigned; (-)) [(−)-BCI], for which, in assay [1], the “activity of the levorotatory enantiomer relative to the dextrorotatory form” value is on record as “twice” and the “Activity (BCI = 100)” value came to 156.
In the case of `N#Cc1ccc(/C=C2/C(=O)c3ccccc3C2NC2CCCCC2)cc1` (stereo not shown) [Compound 15], in assay [1], the “activity as compared to BCI” value came to 20% and the “Activity (BCI = 100)” value amounted to 20.
In the case of `O=C1/C(=C/c2ccccc2)C(N2CCSCC2)c2ccccc21` (stereo not shown) [Compound 10], the “Activity (BCI = 100)” value in assay [1] is 27.
Turning to `O=C1/C(=C/c2ccccc2)C(N2CCOCC2)c2ccccc21` (stereo not shown) [Compound 9], the “Activity (BCI = 100)” value in assay [1] is 114.
In the case of `O=C1/C(=C/c2ccccc2)Cc2ccccc21` [Compound 1, (E)-2-benzylidene-2,3-dihydro-1H-inden-1-one], the “d2EGFP fluorescence in treated transgenic embryos” value in assay [2] was “inactive”. In assay [1], the “in vivo activity relative to BCI, in words” value was “inactive” and the “Activity (BCI = 100)” value amounted to 0.
As for `O[C@H]1/C(=C/c2ccccc2)[C@H](NC2CCCCC2)c2ccccc21` (stereo in doubt) [Compound 18, 2-Benzylidene-3-cyclohexylaminoindan-1-ol], the “Activity (BCI = 100)” value in assay [1] is given as 26.
On the same count and under the same terms, the result for `O=C1/C(=C/c2ccccc2)C(Nc2ccccc2)c2ccccc21` (stereo not shown) [Compound 6] reads 7; that for `CN1CCN(C2/C(=C\c3ccccc3)C(=O)c3ccccc32)CC1` (stereo not shown) [Compound 12], 0; that for `O=C1/C(=C/c2ccccc2)C(N2CCNCC2)c2ccccc21` (stereo not shown) [Compound 11], 22.
The same measure, in the same setting: with `O=C1/C(=C/c2ccccc2)C(NC2CCCCCC2)c2ccccc21` (stereo not shown) [Compound 5, 2-Benzylidene-3-cycloheptylaminoindan-1-one] the figure was 127.
